Laboratory results from the supplement of paper PMC10307832.

Key:
Assay in all cases: relative viability (nuclei count vs DMSO), 5 days (fraction); higher = more cells survive
201T = tested on: 201T
Method in brief: (§1)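 For relative viability, nuclei counts in treated wells were divided by those in vehicle wells. Lung cancer cell lines had been pin-tool dosed in 1536-well plates the day after seeding and cultured for 5 days, then fixed and stained in one step (final 0.05% Triton X-100, 1% formaldehyde, 1 ug/ml Hoechst) and imaged at 4×. Doses were one drug alone or a fixed anchor-drug dose plus five library-drug doses (not always all listed) in √10 steps, and values are duplicate-plate medians.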

ABC-1 = tested on: ABC-1
Method in brief: as §1

BEN = tested on: BEN
Method in brief: as §1

CAL-12T = tested on: CAL-12T
Method in brief: as §1

COR-L 105 = tested on: COR-L 105
Method in brief: as §1

COR-L23 = tested on: COR-L23
Method in brief: as §1

EKVX = tested on: EKVX
Method in brief: as §1

HARA = tested on: HARA
Method in brief: as §1

HCC-366 = tested on: HCC-366
Method in brief: as §1

LK-2 = tested on: LK-2
Method in brief: as §1

LU99A = tested on: LU99A
Method in brief: as §1

NCI-H1437 = tested on: NCI-H1437
Method in brief: as §1

`Clc1ccc(Nc2nnc(Cc3ccncc3)c3ccccc23)cc1` [Vatalanib] + CC(=O)c1c(C)c2cnc(Nc3ccc(N4CCNCC4)cn3)nc2n(C2CCCC2)c1=O [Palbociclib] (partner 0.5 µM) was tested, and the relative viability (201T; first compound 0.04 µM) was 0.777, the relative viability (201T; first compound 0.1265 µM) was 0.344 and the relative viability (201T; first compound 0.4 µM) was 0.348. The relative viability (201T; first compound 1.265 µM) was 0.341, the relative viability (201T; first compound 4 µM) was 0.332 and the relative viability (ABC-1; first compound 0.04 µM) was 0.662. It also gave a relative viability (ABC-1; first compound 0.1265 µM) of 0.7, a relative viability (ABC-1; first compound 0.4 µM) of 0.892 and a relative viability (ABC-1; first compound 4 µM) of 0.59. The relative viability (BEN; first compound 0.04 µM) was 0.474, the relative viability (BEN; first compound 0.1265 µM) was 0.456 and the relative viability (BEN; first compound 0.4 µM) was 0.948. The relative viability (BEN; first compound 1.265 µM) was 0.489, the relative viability (BEN; first compound 4 µM) was 0.489 and the relative viability (CAL-12T; first compound 0.04 µM) was 0.409. It also gave a relative viability (CAL-12T; first compound 0.1265 µM) of 0.312, a relative viability (CAL-12T; first compound 0.4 µM) of 0.384 and a relative viability (CAL-12T; first compound 1.265 µM) of 0.345. The relative viability (CAL-12T; first compound 4 µM) was 0.425, the relative viability (COR-L 105; first compound 0.04 µM) was 0.404 and the relative viability (COR-L 105; first compound 0.1265 µM) was 0.369. For the same compound, the relative viability (COR-L 105; first compound 0.4 µM) was 0.402, the relative viability (COR-L 105; first compound 1.265 µM) was 0.441 and the relative viability (COR-L 105; first compound 4 µM) was 0.396. It also gave a relative viability (COR-L23; first compound 0.04 µM) of 0.364, a relative viability (COR-L23; first compound 0.1265 µM) of 0.286 and a relative viability (COR-L23; first compound 0.4 µM) of 0.322. For the same compound, the relative viability (COR-L23; first compound 1.265 µM) was 0.293, the relative viability (COR-L23; first compound 4 µM) was 0.297 and the relative viability (EKVX; first compound 0.04 µM) was 0.366. The relative viability (EKVX; first compound 0.1265 µM) was 0.369, the relative viability (EKVX; first compound 0.4 µM) was 0.343 and the relative viability (EKVX; first compound 1.265 µM) was 0.375. It also gave a relative viability (EKVX; first compound 4 µM) of 0.334, a relative viability (HARA; first compound 0.04 µM) of 0.227 and a relative viability (HARA; first compound 0.1265 µM) of 0.361. It also gave a relative viability (HARA; first compound 0.4 µM) of 0.224, a relative viability (HARA; first compound 1.265 µM) of 0.244 and a relative viability (HARA; first compound 4 µM) of 0.238. It also gave a relative viability (HCC-366; first compound 0.04 µM) of 0.462, a relative viability (HCC-366; first compound 0.1265 µM) of 0.348 and a relative viability (HCC-366; first compound 0.4 µM) of 0.457. It also gave a relative viability (HCC-366; first compound 1.265 µM) of 0.391, a relative viability (HCC-366; first compound 4 µM) of 0.355 and a relative viability (LK-2; first compound 0.04 µM) of 0.41. The relative viability (LK-2; first compound 0.1265 µM) was 0.694, the relative viability (LK-2; first compound 0.4 µM) was 0.796 and the relative viability (LK-2; first compound 1.265 µM) was 0.762. The relative viability (LK-2; first compound 4 µM) was 0.748, the relative viability (LU99A; first compound 0.04 µM) was 0.418 and the relative viability (LU99A; first compound 0.1265 µM) was 0.383. The relative viability (LU99A; first compound 0.4 µM) was 0.435, the relative viability (LU99A; first compound 1.265 µM) was 0.355 and the relative viability (LU99A; first compound 4 µM) was 0.415. For the same compound, the relative viability (NCI-H1437; first compound 0.04 µM) was 0.309, the relative viability (NCI-H1437; first compound 0.1265 µM) was 0.318 and the relative viability (NCI-H1437; first compound 0.4 µM) was 0.356. For the same compound, the relative viability (NCI-H1437; first compound 1.265 µM) was 0.294 and the relative viability (NCI-H1437; first compound 4 µM) was 0.279.
